Source: patent US20100041892A1, “Therapeutic agent for diabetes” (priority 2005, published 2010)
Read-outs that look alike come from different tables or passages of the source.

How the values were obtained:
KKAy mice = assay: Blood glucose and blood lipid (triglyceride) lowering action in mice; assay type: in vivo; details: Mus musculus, 4TO7, po, 4 to 7 days; for response vs control in vivo at 0.01 %: 0.01% in powder diet; for response vs control in vivo at 0.03 %: 0.03% in powder diet
From the text: The test compound was mixed with a powder diet (CE-2, CLEA JAPAN, INC.) at a proportion of 0.01% (0.03% for the compounds of Examples 1, 2, 12, 81, 94, 96, 129 and 143, and 0.005% for the compounds of Examples 28, 30 and 37) and freely given to KKAy mice (9 to 14-week-old, 5 mice per group) which are obesity non-insulin-dependent diabetes (type-2 diabetes) models, for 4 to 7 days. During this period, water was freely given. The blood was drawn from the orbital venous plexus. Glucose and triglyceride in the plasma separated from the blood were quantitated using L Type Wako Glu2 (Wako Pure Chemical Industries, Ltd.) and L Type Wako TG·H (Wako Pure Chemical Industries, Ltd.), respectively, according to an enzyme method.

PPARγ-RXRα heterodimer = molecular target: T1, PPARγ-RXRα heterodimer (Homo sapiens, UniProt P37231); assay: PPARγ-RXRα heterodimer ligand activity (luciferase reporter, PPARγ:RXRα:4ERPP/CHO-K1 cells); assay type: cell-based; details: concentration showing 50% of the maximum luciferase induction rate; CHO-K1 reporter cells, one day incubation
T1 construct: expressed in transfected cells; host or cells: CHO-K1 (PPARγ:RXRα:4ERPP/CHO-K1)
T1 sequence (P37231 1-477 isoform P37231-2): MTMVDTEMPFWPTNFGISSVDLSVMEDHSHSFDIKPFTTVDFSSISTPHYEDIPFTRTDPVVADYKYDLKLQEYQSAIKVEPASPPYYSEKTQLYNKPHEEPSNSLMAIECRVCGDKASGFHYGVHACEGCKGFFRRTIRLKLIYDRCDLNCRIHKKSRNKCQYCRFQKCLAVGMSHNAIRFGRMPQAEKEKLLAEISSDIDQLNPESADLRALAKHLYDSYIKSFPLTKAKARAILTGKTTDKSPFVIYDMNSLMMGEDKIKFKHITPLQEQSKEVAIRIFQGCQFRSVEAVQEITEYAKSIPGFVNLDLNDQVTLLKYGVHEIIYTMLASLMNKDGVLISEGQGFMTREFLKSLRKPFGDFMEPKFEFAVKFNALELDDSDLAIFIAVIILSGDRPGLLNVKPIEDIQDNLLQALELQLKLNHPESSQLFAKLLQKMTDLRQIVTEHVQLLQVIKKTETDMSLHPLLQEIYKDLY
T1 sequence (P19793 1-462 partner): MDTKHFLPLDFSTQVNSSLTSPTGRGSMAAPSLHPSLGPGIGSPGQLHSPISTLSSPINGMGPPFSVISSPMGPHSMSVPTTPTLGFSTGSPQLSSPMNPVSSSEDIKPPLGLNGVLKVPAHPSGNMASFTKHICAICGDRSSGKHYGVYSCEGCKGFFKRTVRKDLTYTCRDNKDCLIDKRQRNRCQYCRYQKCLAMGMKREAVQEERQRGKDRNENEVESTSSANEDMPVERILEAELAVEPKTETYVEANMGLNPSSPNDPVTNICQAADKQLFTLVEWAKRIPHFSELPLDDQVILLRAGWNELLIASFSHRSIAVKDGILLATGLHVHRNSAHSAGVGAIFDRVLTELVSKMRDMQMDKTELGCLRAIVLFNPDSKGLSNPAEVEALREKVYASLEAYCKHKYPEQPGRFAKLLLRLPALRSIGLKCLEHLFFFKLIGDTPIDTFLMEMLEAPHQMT
Procedure: The PPARγ:RXRα:4ERPP/CHO-K1 cells described in WO03/099793 were cultured in a Ham F12 medium [manufactured by Life Technologies, Inc., US] containing 10% calf fetal serum [manufactured by Life Technologies, Inc., US], sown in a 96-well white plate (manufactured by Corning Coster Corporation, US] at 1×10^4 cells/well, and incubated overnight in a carbon dioxide gas incubator at 37° C.
Then, the medium was removed from the 96 well white plate, 45 μl of Ham F12-medium containing 0.1% fatty acid-free bovine serum albumin (BSA) and a test compound (5 μl) were added, and the cells were incubated for one day in a carbon dioxide gas incubator at 37° C. The medium was removed, 20 μl of PicaGene 7.5 (manufactured by Wako Pure Chemical Industries, Ltd.) 2-fold diluted with HBSS (HANKS' BALANCED SALT SOLUTION) [manufactured by BIO WHITTAKER, US] was added. After stirring, the luciferase activity was determined using the 1420 ARVO Multilabel Counter [manufactured by PerkinElmer, US].
The induction rate was calculated from the luciferase activity of each test compound based on the luciferase activity of the test compound non-administration group as 1. The test compound concentration and the induction rate were analyzed by PRISM [manufactured by GraphPad Software, Inc., US] to calculate EC50 value (compound concentration showing 50% of the maximum value of induction rate) of the test compound.

[1] = plasma glucose relative to non-administration group = 100%, read-out: hypoglycemic action (%)
[2] = plasma triglyceride relative to non-administration group = 100%, read-out: hypolipidemic action (%)

melting point	EC50 (PPARγ-RXRα heterodimer)	SMILES	response vs control in vivo at 0.01 % (KKAy mice; [1])	response vs control in vivo at 0.01 % (KKAy mice; [2])	response vs control in vivo at 0.03 % (KKAy mice; [1])	response vs control in vivo at 0.03 % (KKAy mice; [2])
155.5 to 157.5 °C	4.6 nM	CC(C)CCS(=O)(=O)NC(=O)/C=C/c1cc(OCC2CC2)nn1Cc1ccc(C(F)(F)F)cc1Cl [Example 26, (2E)-3-[1-[2-chloro-4-(trifluoromethyl)benzyl]-3-(cyclopropylmethoxy)-1H-pyrazol-5-yl]-N-[(3-methylbutyl)sulfonyl]acrylamide]	50%	62%	–	–
148 to 151 °C	7.2 nM	CCCCCS(=O)(=O)NC(=O)/C=C/c1cc(OCC2CC2)nn1Cc1ccc(C(F)(F)F)cc1Cl [Example 151, (2E)-3-[1-[2-chloro-4-(trifluoromethyl)benzyl]-3-(cyclopropylmethoxy)-1H-pyrazol-5-yl]-N-(pentylsulfonyl)acrylamide]	59%	73%	–	–
104.5 to 105.6 °C	3.8 nM	CCCCCS(=O)(=O)NC(=O)/C(=C/c1ccc(OCCOC)cc1Oc1ncc(C(F)(F)F)cc1Cl)CC [Example 183, (2E)-2-[2-{[3-chloro-5-(trifluoromethyl)pyridin-2-yl]oxy}-4-(2-methoxyethoxy)benzylidene]-N-(pentylsulfonyl)butanamide]	48%	44%	–	–
116 to 118 °C	4.4 nM	CCCCCS(=O)(=O)NC(=O)/C=C/c1ccc(OCCC2OCCO2)cc1Oc1ncc(C(F)(F)F)cc1Cl [Example 196, (2E)-3-[2-{[3-chloro-5-(trifluoromethyl)pyridin-2-yl]oxy}-4-[2-(1,3-dioxolan-2-yl)ethoxy]phenyl)-N-(pentylsulfonyl)acrylamide]	54%	79%	–	–
80.5 to 82.5 °C	28 nM	CCCCCS(=O)(=O)NC(=O)/C=C/c1ccc(Oc2ncccn2)cc1Oc1ncc(C(F)(F)F)cc1Cl [Example 197, (2E)-3-[2-{[3-chloro-5-(trifluoromethyl)pyridin-2-yl]oxy}-4-(pyrimidin-2-yloxy)phenyl]-N-(pentylsulfonyl)acrylamide]	58%	87%	–	–
–	6.7 nM	CCCCCS(=O)(=O)NC(=O)C(Cc1ccc(OCCOC)cc1Oc1ncc(C(F)(F)F)cc1Cl)OC (stereo not shown) [Example 210, 3-[2-{[3-chloro-5-(trifluoromethyl)pyridin-2-yl]oxy}-4-(2-methoxyethoxy)phenyl]-2-methoxy-N-(pentylsulfonyl)propanamide]	58%	69%	–	–
–	5.2 nM	CCCCCS(=O)(=O)NC(=O)/C(C)=C/c1ccc(OCCOC)cc1Oc1ncc(C(F)(F)F)cc1Cl [Example 211, (2E)-3-[2-{[3-chloro-5-(trifluoromethyl)pyridin-2-yl]oxy}-4-(2-methoxyethoxy)phenyl]-2-methyl-N-(pentylsulfonyl)acrylamide]	49%	46%	–	–
–	1.1 nM	CCCCCNS(=O)(=O)NC(=O)CCc1ccc(OCCOC)cc1Oc1ncc(C(F)(F)F)cc1Cl [Example 214, 3-[2-{[3-chloro-5-(trifluoromethyl)pyridin-2-yl]oxy}-4-(2-methoxyethoxy)phenyl]-N-[(pentylamino)sulfonyl]propanamide]	56%	65%	–	–
–	7.2 nM	CCCCCS(=O)(=O)NC(=O)/C=C/c1ccc(OCC(C)(C)O)cc1Oc1ncc(C(F)(F)F)cc1Cl [Example 250, (2E)-3-[2-{[3-chloro-5-(trifluoromethyl)pyridin-2-yl]oxy}-4-(2-hydroxy-2-methylpropoxy)phenyl]-N-(pentylsulfonyl)acrylamide]	78%	121%	–	–
–	3.1 nM	CCCCCS(=O)(=O)NC(=O)C(C)(C)Cc1ccc(OCCOC)cc1Oc1ncc(C(F)(F)F)cc1Cl [Example 252, 3-[2-{[3-chloro-5-(trifluoromethyl)pyridin-2-yl]oxy}-4-(2-methoxyethoxy)phenyl]-2,2-dimethyl-N-(pentylsulfonyl)propanamide]	46%	20%	–	–
–	6.2 nM	CCCCCS(=O)(=O)NC(=O)/C=C/c1ccc(OCCOC2CC2)cc1Oc1ncc(C(F)(F)F)cc1Cl [Example 424, (2E)-3-{2-{[3-chloro-5-(trifluoromethyl)pyridin-2-yl]oxy}-4-[2-(cyclopropyloxy)ethoxy]phenyl}-N-(pentylsulfonyl)acrylamide]	70%	18%	–	–
–	1.8 nM	CC(C)OCCNS(=O)(=O)NC(=O)OCCCc1ccc(OCCO)cc1Oc1ncc(C(F)(F)F)cc1Cl [Example 439, 3-[2-{[3-chloro-5-(trifluoromethyl)pyridin-2-yl]oxy}-4-(2-hydroxyethoxy)phenyl]propyl {[(2-isopropoxyethyl)amino]sulfonyl}carbamate]	49%	34%	–	–
–	3.4 nM	CC(C)Oc1ccc(CCCOC(=O)NS(=O)(=O)NCCc2ccccn2)c(Oc2ncc(C(F)(F)F)cc2Cl)c1 [Example 444, 3-(2-{[3-chloro-5-(trifluoromethyl)pyridin-2-yl]oxy}-47 isopropoxyphenyl)propyl {[(2-pyridin-2-ylethyl)amino]sulfonyl}carbamate]	55%	52%	–	–

SMILES	melting point	EC50 (PPARγ-RXRα heterodimer)	response vs control in vivo at 0.01 % (KKAy mice; [1])	response vs control in vivo at 0.01 % (KKAy mice; [2])	response vs control in vivo at 0.03 % (KKAy mice; [1])	response vs control in vivo at 0.03 % (KKAy mice; [2])
CCCCCS(=O)(=O)NC(=O)CCc1cc(OCCCC)nn1Cc1ccc(Cl)cc1Cl [Example 97, 3-[3-butoxy-1-(2,4-dichlorobenzyl)-1H-pyrazol-5-yl]-N-(pentylsulfonyl)propanamide]	104 to 105 °C	7.5 nM	58%	64%	–	–
CCCCOC(=O)NS(=O)(=O)CCc1cc(OCCCC)nn1Cc1ccc(Cl)cc1Cl [Example 129, butyl ({2-[3-butoxy-1-(2,4-dichlorobenzyl)-1H-pyrazol-5-yl]ethyl}sulfonyl)carbamate]	108 to 111 °C	10 nM	–	–	45%	76%
CCCCCS(=O)(=O)NC(=O)/C=C/c1ccc(OCCO)cc1Oc1ncc(C(F)(F)F)cc1Cl [Example 218, (2E)-3-[2-{[3-chloro-5-(trifluoromethyl)pyridin-2-yl]oxy}-4-(2-hydroxyethoxy)phenyl]-N-(pentylsulfonyl)acrylamide monohydrate]	–	80 nM	81%	129%	–	–
